According to patent US10537535B2, “Histone deacetylase inhibitors” (The Regents of the University of California, priority 2015, dated 2020):

What was measured:
human HDAC8 = target: T1, human HDAC8 (Homo sapiens, UniProt Q9BY41); experiment: Fluorometric HDAC activity assay, purified human HDAC8; assay type: biochemical; conditions: purified human HDAC8, n=4-5
T1 construct: purchased BPS Bioscience 50068
T1 sequence (Q9BY41 1-377): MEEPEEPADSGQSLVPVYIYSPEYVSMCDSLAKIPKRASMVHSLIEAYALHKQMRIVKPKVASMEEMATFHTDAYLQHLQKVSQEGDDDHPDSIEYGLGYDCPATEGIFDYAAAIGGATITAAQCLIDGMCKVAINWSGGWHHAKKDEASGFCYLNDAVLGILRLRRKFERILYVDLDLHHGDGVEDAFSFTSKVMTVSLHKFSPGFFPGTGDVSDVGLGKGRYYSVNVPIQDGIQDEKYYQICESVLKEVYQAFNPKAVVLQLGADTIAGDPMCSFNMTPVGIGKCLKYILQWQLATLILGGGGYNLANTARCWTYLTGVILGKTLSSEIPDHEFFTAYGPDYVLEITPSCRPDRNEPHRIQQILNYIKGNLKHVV
Description: In order to directly test whether diacetyl acts as an inhibitor of HDACs, in vitro acetylation assays was performed with purified human HDACs. In this example, β-hydroxybutyrate (a naturally-occurring HDAC inhibitor secreted by the liver, targeting zinc-dependent HDACs) was used for comparison. HDAC activity of class I HDACs (HDAC1, 2, 3 and 8) was measured with the fluorometric HDAC Activity Assay kit: HDAC1 (10011563, Cayman Chemical, Ann Arbor, Mich.), HDAC2, HDAC 3 and HDAC 8 (50062, 50073 and 50068, BPS Bioscience, San Diego, Calif.), according to the manufacturer's instructions.

[1] = system: gene expression in the antenna of Drosophila melanogaster; experiment: RNA-seq transcriptome analysis of Drosophila antennae after exposure or feeding; assay type: in vivo
Excerpt: In order to examine the physiological effects of long-term exposure to an odorant, flies were maintained in vials with circulating volatiles from headspace of a low concentration (1% in paraffin oil) of the odorant diacetyl, which acts on a number of different receptor pathways in Drosophila. In a similar manner to previous odor-exposure studies, flies were exposed to diacetyl for 5 days and performed an RNA-seq analysis of the antennae, which are known odor-detecting organs. The transcriptome was compared with a control group of age-matched flies that were exposed to the headspace of the solvent paraffin oil (PO, FIG. 3A).
Flies were exposed to diacetyl (2,3-Butanedione, B85307, Sigma-Aldrich, St. Louis, Mo.) by placing them in vials in a cylindrical closed container (112 mm diameter×151 mm height) along with an odor-containing glass vial. The odorant was dissolved in 10 mL paraffin oil at 1% dilution. For a given exposure protocol, two groups of flies were prepared: those exposed to 1% diacetyl headspace and those exposed to paraffin oil headspace alone (control flies). Adult male flies aged 1 d were transferred to fly vials containing fresh medium, and put into the container with the odor vial. At the end of the fifth day of exposure, flies were collected, and their antennae were dissected for RNA extraction. All treatments and experiments were performed at room temperature. For the recovery experiment, flies were transferred again to the container containing a glass vial of paraffin oil after 5 days of diacetyl exposure. At the end of the fifth day of recovery, flies were collected, and their antennae were dissected for RNA extraction.
Sodium butyrate (B5887, Sigma-Aldrich) or valproic acid (P4543, Sigma-Aldrich) were dissolved in normal fly food medium at the final concentration of 10 mM. Three groups of flies were prepared: those treated with one of the HDAC inhibitors and those without HDAC inhibitor treatment (control flies). Adult flies aged 1 d were transferred to fly vials containing medium with or without a HDAC inhibitor. At the end of the fifth day of treatment, flies were collected, and their antennae were dissected for RNA extraction. All treatments and experiments were performed at room temperature.
The second and third antennal segments from 40-60 male flies after treatment were carefully hand-dissected from the head, collected in 1.5 ml microfuge tubes kept cold in liquid nitrogen. Antennae were mechanically crushed with disposable RNAse-free plastic pestles, and total RNA was isolated using a Trizol-based protocol. cDNA libraries were prepared from total RNA (300-1000 ng/sample) using the Illumina TruSeq RNA Library Preparation Kit (Illumina Catalog #RS-122-2001). Samples were submitted to the UCR IIGB sequencing core for high-throughput sequencing using the Illumina HiSeq2500 platform. Raw reads were aligned to the Drosophila melanogaster reference genome (dmel-all-chromosome-r5.48.fasta) with Tophat2, and a count table of reads overlapping with exonic regions of genes was generated by the UCR bioinformatics core. The numbers of biological replicates are: 2, day 5 paraffin oil; 1, day 5 diacetyl; 2, day 5 mock; 2, day 5 sodium butyrate; 2, day 5 valproic acid; 2, day 10 paraffin oil recovery; 2, day 10 diacetyl recovery.
The read count table for all the genes were then imported into R and a statistical analysis of differential gene expression using the DESeq package (1.22.0) was performed. […] The gene list analysis was performed using the GO Term Mapper (http://go.princeton.edu/) with Generic GO slim datasets, and the Statistical overrepresentation test was performed using the PANTHER classification (http://www.pantherdb.org/) system with GO complete datasets.
This example investigates the overlap among genes modulated by diacetyl as compared to sodium butyrate and valproic acid, which are known HDAC inhibitors. […]

[2] = 5 days, diacetyl 1% headspace, SB/VA 10 mM in food, vs control
[3] = of 125 up-regulated genes, 5 days exposure then 5 days recovery
[4] = out of 125 diacetyl-induced genes

IC50 (human HDAC8): 11.4 mM
SMILES: CC(=O)C(C)=O [diacetyl, 2,3-Butanedione]
number of differentially-expressed genes in antennal transcriptome [1, 2]: 202 genes | number of genes down-regulated >2-fold [1, 2]: 77 genes | number of genes up-regulated >2-fold [1, 2]: 125 genes | genes continuing to show increased mRNA abundance after odor removal [1, 3]: 11 genes | genes showing little change after recovery [1, 3]: 38 genes | transcripts showing a reduction with diacetyl recovery [1, 3]: 27 genes | diacetyl down-regulated genes overlapping with those down-regulated in either SB- or VA-treated groups ([1]; out of 77 down-regulated genes): About 28 genes | diacetyl-induced genes overlapping with SB-induced genes [1, 4]: 51 genes | diacetyl-induced genes overlapping with VA-induced genes [1, 4]: 40 genes
